For data set [1], the system named is VSV-EBOV-GP. Briefly: microbe, parasite or virus in culture. It is filed as cell-based, Ebola virus (EBOV/H.sap-tc/COD/76/Yambuku-Mayinga). The note with it: for inhibition at 0.2 µM: read-out: Inhibition% (200nM).
Data set [2] in a line: in vitro. The note with it: African green monkey.
The subject of data set [3] is Vero cells. The note with it: for cytotoxicity: African green monkey.
Data set [4] concerns the target EBOV-GP (Zaire ebolavirus, UniProt Q05320). Kind of data set: biochemical. In kind it is binding, Zaire EBOV (strain Mayinga-76).
Data set [5] concerns VSV-G. In kind it is cell-based, vesicular stomatitis virus.
Data set [6] concerns VSV-LASV-GP. In kind it is cell-based, Lassa virus (LASV) (Josiah).

Structures are written as SMILES. Like-named read-outs stand apart in the source and are kept apart here.

The term inhibition denotes the relative decrease from the control value, in per cent. As a reminder, the EC50 is the concentration giving half of the maximal effect. A word on the Kd: it is the constant that tells how readily two partners part at equilibrium.

Chain of EBOV-GP (Q05320 33-650 limits assumed): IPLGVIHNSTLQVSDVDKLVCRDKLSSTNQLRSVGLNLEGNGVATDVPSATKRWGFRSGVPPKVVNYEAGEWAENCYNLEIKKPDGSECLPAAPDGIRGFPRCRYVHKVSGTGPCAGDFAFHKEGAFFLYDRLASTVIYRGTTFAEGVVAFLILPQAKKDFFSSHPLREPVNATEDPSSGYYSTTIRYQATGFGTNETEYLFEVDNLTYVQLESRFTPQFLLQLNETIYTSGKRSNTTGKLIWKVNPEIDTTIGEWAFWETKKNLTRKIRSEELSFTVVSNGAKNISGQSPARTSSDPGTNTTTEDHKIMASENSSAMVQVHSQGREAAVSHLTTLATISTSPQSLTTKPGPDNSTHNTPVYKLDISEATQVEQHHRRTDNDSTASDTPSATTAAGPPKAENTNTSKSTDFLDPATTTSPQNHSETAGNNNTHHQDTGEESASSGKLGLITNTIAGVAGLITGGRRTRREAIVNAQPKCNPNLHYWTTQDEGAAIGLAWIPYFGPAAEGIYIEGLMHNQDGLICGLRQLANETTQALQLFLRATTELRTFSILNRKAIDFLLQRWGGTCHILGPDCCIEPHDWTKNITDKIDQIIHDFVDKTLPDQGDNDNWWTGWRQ

Regarding `CC/C(=C(\c1ccccc1)c1ccc(OCCN(C)C)cc1)c1ccc(NS(=O)(=O)NC(C)c2n[nH]c(=O)[nH]2)cc1` (centres unmarked) [Compound F02, CC/C(=C(\c1ccccc1)c1ccc(OCCN(C)C)cc1)c1ccc(NS(=O)(=O)NC(C)c2n[nH]c(=O)[nH]2)cc1], in data set [1] (Zaire ebolavirus, Vero), the inhibition at 0.2 µM worked out at 14.1%.
In data set [1] (Zaire ebolavirus, Vero), `CC/C(=C(\c1ccccc1)c1ccc(OCCN(C)C)cc1)c1cccc(NS(=O)(=O)NC2(C)CCOC2)c1` (centres unmarked) [Compound 7] had an EC50 of 268 nM. The compound also returned a CC50 in data set [2] of 8400 nM. Also, the “SI (Selectivity index = CC50/EC50)” value in data set [3] amounted to 31.
For `CC/C(=C(\c1ccccc1)c1ccc(OCCN(C)C)cc1)c1cccc(NS(=O)(=O)NC2COC2)c1` [Compound 5], the EC50 in data set [1] (Zaire ebolavirus, Vero) turned out to be 156 nM. This compound also registered a CC50 in data set [2] of 6800 nM. The “SI (Selectivity index = CC50/EC50)” value in data set [3] stood at 44.
`CC/C(=C(\c1ccccc1)c1ccc(OCCN(C)C)cc1)c1ccc(N=S(=O)(F)N(C)Cc2ccn[nH]2)cc1` (centres unmarked) [Compound C02, CC/C(=C(\c1ccccc1)c1ccc(OCCN(C)C)cc1)c1ccc(N=S(=O)(F)N(C)Cc2ccn[nH]2)cc1]: the inhibition at 0.2 µM in data set [1] (Zaire ebolavirus, Vero) amounted to 2.05%.
In data set [1] (Zaire ebolavirus, Vero), `CC/C(=C(\c1ccccc1)c1ccc(OCCN(C)C)cc1)c1cccc(NS(=O)(=O)N[C@H]2CCN(C(CC)CC)C2)c1` [Compound 13] returned an EC50 of 813 nM. Also, the CC50 in data set [2] was 5300 nM. Moreover, the “SI (Selectivity index = CC50/EC50)” value in data set [3] was determined as 6.5.
With `CC/C(=C(\c1ccccc1)c1ccc(OCCN(C)C)cc1)c1cccc(NS(=O)(=O)NC2CCN(CC)C2)c1` (centres unmarked) [Compound 12], a half-maximal effect in data set [1] (Zaire ebolavirus, Vero) (EC50) was put at 841 nM. The CC50 in data set [2] was 4000 nM. The “SI (Selectivity index = CC50/EC50)” value in data set [3] turned out to be 4.8.
As for `CC/C(=C(\c1ccccc1)c1ccc(OCCN(C)C)cc1)c1cccc(NS(=O)(=O)NC2CCOC2)c1` (centres unmarked) [Compound 4], the 50% effective concentration (EC50) is 240 nM in data set [1] and 241 nM in data set [1] (Zaire ebolavirus, Vero).
`CCCN1CCC(NS(=O)(=O)Nc2cccc(/C(CC)=C(/c3ccccc3)c3ccc(OCCN(C)C)cc3)c2)C1` (centres unmarked) [Compound 14] yielded a half-maximal effective concentration (EC50) in data set [1] (Zaire ebolavirus, Vero) of 618 nM. In data set [2], the CC50 was 3100 nM. Moreover, in data set [3], the “SI (Selectivity index = CC50/EC50)” value was found to be 5.0.
`CC/C(=C(\c1ccccc1)c1ccc(OCCN(C)C)cc1)c1cccc(NS(=O)(=O)NC2CCN(CCCO)C2)c1` (centres unmarked) [Compound 15] had an EC50 in data set [1] (Zaire ebolavirus, Vero) of 1720 nM. Besides, in data set [2], the CC50 came out at 7700 nM. Further, in data set [3], the “SI (Selectivity index = CC50/EC50)” value came to 4.5.
Compound `CC/C(=C(\c1ccccc1)c1ccc(OCCN(C)C)cc1)c1cccc(NS(=O)(=O)NCc2ncon2)c1` [Compound 3] yielded a concentration giving a half-maximal response (EC50) in data set [1] (Zaire ebolavirus, Vero, 16 h) of 550 nM.
In turn, `CC/C(=C(\c1ccccc1)c1ccc(OCCN(C)C)cc1)c1cccc(NS(=O)(=O)N[C@@H]2CCOC2)c1` [Compound 4R] gave an EC50 in data set [1] (Zaire ebolavirus, Vero) of 351 nM. Moreover, the CC50 in data set [2] is 15000 nM. The Kd in data set [4] is 6400 nM. For the same compound, in data set [3], the “SI (Selectivity index = CC50/EC50)” value turned out to be 43 and the cytotoxicity entry is recorded as “did not show significant cytotoxicity below 10 µM”.
Take `CC/C(=C(\c1ccccc1)c1ccc(OCCN(C)C)cc1)c1ccccc1` [Tamoxifen, tamoxifen, reference compound]: the “inhibition of VLPs displaying VSV-G” value in data set [5] was “selective inhibition of VSV-EBOV-GP but not VSV-G or VSV-LASV-GP”. Also, in data set [6], the “inhibition of VSV-LASV-GP” value is “selective inhibition of VSV-EBOV-GP but not VSV-G or VSV-LASV-GP”.
Regarding `CC/C(=C(\c1ccccc1)c1ccc(OCCN(C)C)cc1)c1cccc(NS(=O)(=O)NC2CCN(C)C2)c1` (centres unmarked) [Compound 8], the EC50 in data set [1] (Zaire ebolavirus, Vero) came out at 145 nM. Besides, the CC50 in data set [2] was found to be 2000 nM. The “SI (Selectivity index = CC50/EC50)” value in data set [3] turned out to be 14.
On to `CC/C(=C(\c1ccccc1)c1ccc(OCCN(C)C)cc1)c1ccc(NS(=O)(=O)NCc2n[nH]c(=O)[nH]2)cc1` [Compound D02, CC/C(=C(\c1ccccc1)c1ccc(OCCN(C)C)cc1)c1ccc(NS(=O)(=O)NCc2n[nH]c(=O)[nH]2)cc1], for which the inhibition at 0.2 µM in data set [1] (Zaire ebolavirus, Vero) was -0.485%.
In the case of `CC/C(=C(\c1ccccc1)c1ccc(OCCN(C)C)cc1)c1cccc(NS(=O)(=O)N[C@H]2CCOC2)c1` [Compound 4S], the “inhibition of VLPs displaying VSV-G” value in data set [5] was “selective inhibition of VSV-EBOV-GP but not VSV-G or VSV-LASV-GP”. In data set [1] (Zaire ebolavirus, Vero), this compound had an EC50 of 92 nM. The compound further came in with a CC50 in data set [2] of 14000 nM. In data set [4], the Kd was 630 nM and the “affinity enhancement vs tamoxifen” value is recorded as 50 fold. The “inhibition of VSV-LASV-GP” value in data set [6] is on record as “selective inhibition of VSV-EBOV-GP but not VSV-G or VSV-LASV-GP”. Besides, in data set [3], the “SI (Selectivity index = CC50/EC50)” value came out at 150 and the cytotoxicity entry is recorded as “did not show significant cytotoxicity below 10 µM”.
`CC/C(=C(\c1ccccc1)c1ccc(OCCN(C)C)cc1)c1cccc(NS(=O)(=O)N[C@@H]2CCN(C)C2)c1` [Compound 11] yielded an EC50 in data set [1] (Zaire ebolavirus, Vero) of 575 nM. The CC50 in data set [2] was 3600 nM. Besides, the “SI (Selectivity index = CC50/EC50)” value in data set [3] is given as 6.3.
Taken in the same sequence, the figures for `CC/C(=C(\c1ccccc1)c1ccc(OCCN(C)C)cc1)c1cccc(NS(=O)(=O)N[C@H]2CCN(C)C2)c1` [Compound 10] were 664 nM, 3000 nM and 4.5.
In the case of `CC/C(=C(\c1ccccc1)c1ccc(OCCN(C)C)cc1)c1ccc(N=S(=O)(F)N(C)Cc2n[nH]c(=O)[nH]2)cc1` (centres unmarked) [Compound E02, CC/C(=C(\c1ccccc1)c1ccc(OCCN(C)C)cc1)c1ccc(N=S(=O)(F)N(C)Cc2n[nH]c(=O)[nH]2)cc1], the inhibition at 0.2 µM in data set [1] (Zaire ebolavirus, Vero) was 11%.
`CC/C(=C(\c1ccccc1)c1ccc(OCCN(C)C)cc1)c1cccc(NS(=O)(=O)NC2CCCOC2)c1` (centres unmarked) [Compound 2] showed an EC50 in data set [1] (Zaire ebolavirus, Vero, 16 h) of 470 nM.
On to `CC/C(=C(\c1ccccc1)c1ccc(OCCN(C)C)cc1)c1cccc(NS(=O)(=O)NC2CCN(C(C)C)C2)c1` (centres unmarked) [Compound 9], for which the response in data set [1] (Zaire ebolavirus, Vero) was half-maximal at 790 nM (EC50). The CC50 in data set [2] is 3400 nM. Besides, the “SI (Selectivity index = CC50/EC50)” value in data set [3] is 4.3.
In data set [1] (Zaire ebolavirus, Vero), `CC/C(=C(\c1ccccc1)c1ccc(OCCN(C)C)cc1)c1cccc(NS(=O)(=O)NC2COCC2C)c1` (centres unmarked) [Compound 6] gave an EC50 of 201 nM. Also, the CC50 in data set [2] stood at 14000 nM. For the same compound, in data set [3], the “SI (Selectivity index = CC50/EC50)” value came to 70.
In data set [1] (Zaire ebolavirus, Vero, 16 h), `CC/C(=C(\c1ccccc1)c1ccc(OCCN(C)C)cc1)c1cccc(N=S(=O)(F)F)c1` [Compound 1] registered a concentration giving a half-maximal response (EC50) of 380 nM. Further, the cytotoxicity entry in data set [3] is on record as “did not exhibit cytotoxicity up to 10 µM”.
On to `CC/C(=C(\c1ccccc1)c1ccc(OCCN(C)C)cc1)c1ccc(NS(=O)(=O)NCc2ccn[nH]2)cc1` [Compound B02, CC/C(=C(\c1ccccc1)c1ccc(OCCN(C)C)cc1)c1ccc(NS(=O)(=O)NCc2ccn[nH]2)cc1], for which the inhibition at 0.2 µM in data set [1] (Zaire ebolavirus, Vero) is 4.27%.

These data come from PMC12066687 (Frontiers in Immunology, 2025).
